# Several values for one entry are separate records, joined by “and”; a condition that tells them apart may be missing. Equal entries are not always repeated. Where two headings read alike, the source gives them in different places.
# Experiments:
# gills of rainbow trout = assay: Mechanistic one-box mass balance model of gill uptake and elimination; details: for predicted gill elimination rate constant eq 1 (k2): from measured kU and modeled αW, αB, DFW
# Source text: To gain more mechanistic insight into the results, we formulated a simple one-box mass balance model of chemical bioconcentration in fish that considered diffusive uptake and elimination across the gills as well as biotransformation.[33] The flow of water across the gills and the flow of blood through the gills were modeled as perfusion limited resistances that constrain gill uptake and elimination. […] Consequently, these resistances are unknowns. Ion trapping effects caused by differences in pH between water at the gill surface and blood in the gills are considered, drawing on previous work on the uptake and elimination of ionizable organic chemicals across the gills of rainbow trout.[22],[23] Partitioning of the chemical from the dissolved phase into blood and into whole fish was calculated as the product of the membrane lipid–water distribution ratio (DMLW,T, including partitioning of both the neutral and the charged forms) and the fraction of membrane lipid in blood and whole fish. A detailed description of the model is provided in the SI (Text S3).
# The contribution of the water perfusion and blood perfusion resistances were compared with the overall resistance for transport across the gills from water to blood (RW→B), which was calculated from the measured kU according to equation S4.3. […] For all of the other chemicals the blood resistance is insignificant compared to the overall resistance.
# The rate constant for elimination across the gills, k2, can be defined as follows: [drawing 1] 1 where αB and αW are the neutral fractions of the chemical in the blood and in the water at the gill surface, respectively, and DFW is the fish-water distribution ratio of the chemical at the pH of blood (8.1) (see Text S3). Using the measured kU and the values of αW, αB, and DFW estimated for the model, k2 was calculated (Table 2).
# [1] = design: method as in Perrin 1965, SRC, REACH, Perrin 1972, Hall 1957; details: selected per amine type, weighted from simulated and experimental analogue data; ref Perrin 1965, SRC, REACH, Perrin 1972, Hall 1957; cited from earlier work
# [2] = Membrane-water partition coefficient of the charged form (DMLW,C); assay type: physicochemical; details: extrapolated from Timmer and Droge (2017)
# Procedure: Table S3: Test chemical properties
# Abbr. pKa$ Log DOC§ Log DMLW,C# SMILES
# $ pKa values derived/reported for different alkylamine type analogues. The selected value is expected to be independent of chain length for all longer chain homologues, using a weighted value obtained from the different sources with more focus on experimental data:
# Algorithm / simulated data Experimental reference data (25 °C)
# Chem ACD/ COSMO- selected
# (https://echa.europa.eu/registration-dossier/-
# [3] = system: juvenile rainbow trout (Oncorhynchus mykiss); assay: Bioconcentration (BCF) experiment based on OECD 305, aqueous exposure to surfactant mixtures; assay type: in vivo; details: for uptake rate constant (kU): 14 d exposure, 28 d depuration; for uptake rate constant (kU) / BCF (kU/kT) / measured total elimination rate constant (kT): whole fish
# Procedure: (§1) Juvenile rainbow trout were purchased from EM lax in Västervik, Sweden, and held in the aquaria facility for one month prior to starting the experiment on August 28, 2018. Ethical approval for the experiments was obtained from Stockholm’s djurförsöksetiska nämnd (decision 9967–2017). The experiment was conducted in six 350 L fiberglass aquaria with a water renewal rate of 1.5 L min^–1 corresponding to a turnover time of […]. The water temperature and the air temperature in the aquaria room were 10 °C. The lighting was dim and programmed on a 12 h light/12 h dark cycle.
# (§2) Three BCF experiments were conducted, one each for MIX1 and MIX2 at pH ∼7.6 (denoted MIX1 and MIX2 in the following), and one for MIX1 at pH ∼6.2 (MIX1pH). Each experiment consisted of a 14 d exposure phase and a 28 d depuration phase. There were also two control aquaria where unexposed fish were kept, one at pH 7.6 and one at pH 6.2. For the pH 6.2 aquaria, a 20% v:v formic acid solution was pumped into a premixing basin where it was mixed with the inflowing water before entering the aquarium. pH sensors monitored pH in the premixing basin and the aquarium. The pH for the MIX1 and MIX2 experiments was governed by the pH of the water supply. Water samples were collected at 8 time points during each experiment for the determination of pH and alkalinity. Water samples were collected daily during the exposure phase for determination of total organic carbon (TOC), which was measured with NDIR detection after acidification, purging and high-temperature catalytic combustion (Shimadzu TOC-L).
# (§3) For the exposure phase, a methanol solution of the test chemical mixture was infused continuously at 4.0 μL min^–1 into the water inflow of the aquarium using a syringe pump. The target concentrations of the chemicals in water ranged from 2.5 to 100 μg L^–1 (Table 1). They were selected to be as low as possible to minimize the risk of toxic effects while still being high enough to enable collection of high-quality data, building on the results of the tissue distribution experiment.[32] The syringe pump was started in an aquarium containing no fish. After 16 h to allow the concentrations to stabilize, ∼80 rainbow trout were transferred to the aquarium. Over the following 14 d water samples were collected and fish were sacrificed according to the schedule in Table S5. The remaining fish were then transferred to a second aquarium that received water without chemical addition. Over the following 28 d further water samples were collected and fish were sacrificed (Table S5).
# (§4) At each fish sampling, 4–6 fish were sacrificed. Fish were also sampled periodically from the control aquaria. Following stunning and severance of the spinal cord, the fish were placed in a polyethylene bag, weighed, and immediately frozen at −20 °C. The median fish weight at sacrifice was 10.94 g, with a 25th and 75th percentile of 8.43 and 13.58 g, respectively.
# (§5) Three fish from each time point were prioritized for analysis based on proximity to the median fish weight. Each fish was semithawed, cut into 3–4 pieces, and homogenized with an Ultra-Turrax device. 150 mg of the homogenate was transferred to a preweighed 13 mL polypropylene tube, centrifuged to a pellet, and weighed. 50 μL of methanol was added and the prepared aliquot was frozen. For extraction internal standard solution (isotope labeled standards of Q10 (D21), Q14 (D29), and P16 (D33)), 3 mL of methanol and 3 steel balls (3.2 mm diameter) were added to the prepared aliquot. This mixture was mixed in a bullet blender for 1 min, and then placed in an ultrasound bath at 50 °C for 60 min. Following centrifugation, the supernatant was decanted and the extraction was repeated. The extracts were combined and a portion corresponding to 25–50 mg homogenate was cleaned up on a weak cationic exchange SPE column (WCX, 60 mg) as described elsewhere.[32] […]
# [4] = as above; assay type: in vivo, Oncorhynchus mykiss; details: whole fish, read-out: measured total elimination rate constant (kT) (converted)
# Procedure: as §1, §2, §3, §4, §5
# rainbow trout [5] = system: rainbow trout; design: method as in PMID 32062967; details: after the 7 d exposure; cited from earlier work
# rainbow trout [6] = assay: Semiquantitative screening of demethylation metabolites in exposed fish; assay type: in vivo; details: last time point of the exposure phase
# Procedure: Semiquantitative screening of possible demethylation metabolites was conducted in the fish collected at the last time point of the exposure phase. […] Demethylation of T10 to form S10 was reported in an in vitro S9 assay, and it was proposed that this is an important elimination mechanism for tertiary amines in fish.[27] There is in vitro evidence that demethylation of secondary alkylamines also occurs, which will be reported elsewhere.[37]
# [7] = ref Timmer and Droge (2017); cited from earlier work
Compound,"k2/kT (gills of rainbow trout; pH 7.6 (MIX1, MIX2))","predicted gill elimination rate constant eq 1 (k2) (gills of rainbow trout; pH 7.6 (MIX1, MIX2)) [h^–1]",pKa used (selected value) [1],"Log DMLW,C (membrane-water partition coefficient of the charged form) [2]","uptake rate constant (kU) ([3]; pH 7.6 (MIX1, MIX2), 10 °C) [L kg^–1 h^–1]","BCF (kU/kT) ([3]; pH 7.6 (MIX1, MIX2)) [L kg^–1]","k el ([4]; pH 7.6 (MIX1, MIX2)) [s⁻¹]",k2/kT (gills of rainbow trout; pH 6.2 (MIX1pH)),predicted gill elimination rate constant eq 1 (k2) (gills of rainbow trout; pH 6.2 (MIX1pH)) [h^–1],modeled water resistance as share of the measured uptake resistance (gills of rainbow trout; pH 7.6),fraction in gills and skin/mucus (rainbow trout [5]) [%],factor by which BCF is lower at pH 6.2 than at pH 7.6 ([3]; MIX1 vs MIX1pH),factor by which kT is greater at pH 6.2 than at pH 7.6 ([3]; MIX1 vs MIX1pH),uptake rate constant (kU) ([3]; pH 6.2 (MIX1pH)) [L kg^–1 h^–1],BCF (kU/kT) ([3]; pH 6.2 (MIX1pH)) [L kg^–1],demethylation metabolites observed in fish (rainbow trout [6]),"Log DMLW,C (membrane-water partition coefficient of the charged form) [7]","measured total elimination rate constant (kT) ([3]; pH 7.6 (MIX1, MIX2)) [h^–1]",other results
"CCCCCCCCCCCCCN [P13, Tridecylamine]",0.17,0.0006,C13NH2 (10.6),6.16,4.8,1390,9.44e-07,,,,,,,,,,,,factor by which k2 was less than kT (gills of rainbow trout): ~10
"CCCCCCCCCCCCCCCCN [P16, Hexadecylamine]",0.01,0.00003,C16NH2 (10.6),7.90,15.3,6100,6.94e-07,0.09,0.00023,exceeds 50%,73,2,no pH dependency for kT,7.8,3000,,,,pH dependency of k2 (factor between pH 7.6 and pH 6.2) (gills of rainbow trout; MIX1 vs MIX1pH): 7; factor by which kU is lower at pH 6.2 than at pH 7.6 ([3]; MIX1 vs MIX1pH): 2; k el ([4]; pH 6.2 (MIX1pH)): 7.22e-07 s⁻¹
"CCCCCCCCCCCCNC [S12, N-methyldodecylamine]",0.6,0.004,C12N(CH3)H (10.8),,5.5,840,,,,,,,,,,"P12, a metabolite of S12, was also observed",5.39,0.0066,
"CCCCCCCCCCCCCCCCNC [S16, N-methylhexadecylamine]",0.03,0.00007,C16N(CH3)H (10.8),7.71,22,8200,,,,,71,,,,,P16 was not detected,,0.0027,
"CCCCCCCCCN(C)C [T9, N,N-dimethylnonylamine]",4.6,0.27,C13N(CH3)2 (10.0),,2.0,35,,,,,,,,,,trace levels of the corresponding primary amines,3.07,0.059,factor by which k2 exceeded kT (gills of rainbow trout; pH 7.6): ~5
"CCCCCCCCCCCCCN(C)C [T13, N,N-dimethyltridecylamine]",1.9,0.010,C13N(CH3)2 (10.0),5.88,15.9,3200,,2.8,0.039,exceeds 50%,,9.5,3 and 2.8,4.7,340,trace levels of the corresponding primary amines,,0.0049,measured total elimination rate constant (kT) ([3]; pH 6.2 (MIX1pH)): 0.0139 h^–1; BCF compared with REACH B (2000) and vB (5000) thresholds ([3]; pH 7.6): greater than 2000 L kg ww^–1

# Reference: article PMC8277129, “Bioconcentration of Several Series of Cationic Surfactants in Rainbow Trout” (Environmental Science & Technology, 2021)
